In the NIST ThermoML archive (doi:10.1021/je7003758):
± gives the expanded uncertainty stated by the source.

Settings: Liquid

CN1CCCC1=O [N-methylpyrrolidone]
mass density [kg/m3]
Settings | 288.15 K | 298.15 K | 308.15 K | 318.15 K
100 kPa | 1036.8 ± 0.3 | 1028 ± 0.3 | 1019.3 ± 0.3 | 1011 ± 0.3
500 kPa | 1036.9 ± 0.3 | 1028.1 ± 0.3 | 1019.5 ± 0.3 | 1011.1 ± 0.3
1000 kPa | 1037.2 ± 0.3 | 1028.4 ± 0.3 | 1019.8 ± 0.3 | 1011.4 ± 0.3
1500 kPa | 1037.4 ± 0.3 | 1028.7 ± 0.3 | 1020 ± 0.3 | 1011.7 ± 0.3
2000 kPa | 1037.7 ± 0.3 | 1028.9 ± 0.3 | 1020.3 ± 0.3 | 1012.1 ± 0.3
2500 kPa | 1037.9 ± 0.3 | 1029.2 ± 0.3 | 1020.6 ± 0.3 | 1012.4 ± 0.3
3000 kPa | 1038.2 ± 0.3 | 1029.4 ± 0.3 | 1020.9 ± 0.3 | 1012.7 ± 0.3
3500 kPa | 1038.4 ± 0.3 | 1029.7 ± 0.3 | 1021.1 ± 0.3 | 1012.9 ± 0.3
4000 kPa | 1038.7 ± 0.3 | 1030 ± 0.3 | 1021.4 ± 0.3 | 1013.2 ± 0.3
4500 kPa | 1038.9 ± 0.3 | 1030.2 ± 0.3 | 1021.6 ± 0.3 | 1013.5 ± 0.3
5000 kPa | 1039.2 ± 0.3 | 1030.5 ± 0.3 | 1021.8 ± 0.3 | 1013.8 ± 0.3
5500 kPa | 1039.4 ± 0.3 | 1030.7 ± 0.3 | 1022.2 ± 0.3 | 1014 ± 0.3
5900 kPa | – | 1031 ± 0.3 | – | –
6000 kPa | 1039.6 ± 0.3 | – | 1022.4 ± 0.3 | 1014.4 ± 0.3
6400 kPa | – | – | 1022.6 ± 0.3 | –
6500 kPa | 1039.9 ± 0.3 | 1031.3 ± 0.3 | – | 1014.6 ± 0.3
6900 kPa | – | 1031.5 ± 0.3 | – | –
7000 kPa | 1040.2 ± 0.3 | – | – | 1014.9 ± 0.3
7100 kPa | – | – | 1023 ± 0.3 | –
7500 kPa | 1040.4 ± 0.3 | 1031.8 ± 0.3 | 1023.1 ± 0.3 | 1015.2 ± 0.3
8000 kPa | 1040.7 ± 0.3 | 1032 ± 0.3 | – | 1015.5 ± 0.3
8100 kPa | – | – | 1023.5 ± 0.3 | –
8500 kPa | 1041 ± 0.3 | 1032.3 ± 0.3 | 1023.7 ± 0.3 | 1015.8 ± 0.3
9000 kPa | 1041.2 ± 0.3 | 1032.5 ± 0.3 | 1024 ± 0.3 | 1016 ± 0.3
9500 kPa | 1041.4 ± 0.3 | – | 1024.3 ± 0.3 | 1016.3 ± 0.3
9600 kPa | – | 1032.9 ± 0.3 | – | –
10000 kPa | 1041.7 ± 0.3 | 1033.1 ± 0.3 | 1024.6 ± 0.3 | 1016.6 ± 0.3
10400 kPa | – | – | 1024.8 ± 0.3 | –
10500 kPa | 1042 ± 0.4 | 1033.3 ± 0.3 | – | 1016.9 ± 0.3
11000 kPa | 1042.2 ± 0.4 | 1033.6 ± 0.3 | – | 1017.3 ± 0.3
11100 kPa | – | – | 1025.1 ± 0.3 | –
11400 kPa | – | – | – | 1017.6 ± 0.3
11500 kPa | 1042.5 ± 0.4 | 1033.8 ± 0.3 | 1025.3 ± 0.3 | –
12000 kPa | – | 1034.1 ± 0.3 | 1025.5 ± 0.3 | 1017.8 ± 0.3
12100 kPa | 1042.7 ± 0.4 | – | – | –
12500 kPa | 1042.9 ± 0.4 | 1034.3 ± 0.3 | 1025.8 ± 0.3 | 1018 ± 0.3
12900 kPa | – | – | – | 1018.3 ± 0.3
13000 kPa | 1043.1 ± 0.4 | 1034.6 ± 0.3 | 1026 ± 0.3 | –
13500 kPa | 1043.4 ± 0.4 | 1034.8 ± 0.3 | 1026.3 ± 0.3 | 1018.5 ± 0.3
14000 kPa | 1043.6 ± 0.4 | 1035.1 ± 0.3 | 1026.5 ± 0.3 | 1018.8 ± 0.3
14400 kPa | – | 1035.3 ± 0.4 | – | –
14500 kPa | 1043.8 ± 0.4 | – | 1026.8 ± 0.3 | 1019.1 ± 0.3
14900 kPa | – | 1035.5 ± 0.4 | – | –
15000 kPa | 1044.1 ± 0.4 | – | 1027 ± 0.3 | 1019.4 ± 0.3
15500 kPa | 1044.3 ± 0.4 | 1035.8 ± 0.4 | 1027.3 ± 0.3 | 1019.7 ± 0.3
16000 kPa | 1044.5 ± 0.4 | 1036 ± 0.4 | 1027.5 ± 0.3 | 1019.9 ± 0.3
16500 kPa | 1044.8 ± 0.4 | 1036.3 ± 0.4 | 1027.7 ± 0.3 | 1020.2 ± 0.3
17000 kPa | 1045 ± 0.4 | 1036.5 ± 0.4 | 1028 ± 0.3 | 1020.4 ± 0.3
17500 kPa | 1045.2 ± 0.4 | 1036.7 ± 0.4 | 1028.3 ± 0.3 | 1020.7 ± 0.3
17900 kPa | – | 1037 ± 0.4 | – | –
18000 kPa | 1045.4 ± 0.4 | – | 1028.5 ± 0.3 | 1021 ± 0.3
18500 kPa | – | 1037.2 ± 0.4 | 1028.7 ± 0.3 | 1021.3 ± 0.3
18600 kPa | 1045.7 ± 0.4 | – | – | –
19000 kPa | 1046 ± 0.4 | 1037.4 ± 0.4 | 1029 ± 0.3 | 1021.5 ± 0.3
19500 kPa | 1046.2 ± 0.4 | 1037.7 ± 0.4 | 1029.2 ± 0.4 | –
19600 kPa | – | – | – | 1021.9 ± 0.3
20000 kPa | 1046.4 ± 0.4 | 1037.9 ± 0.4 | 1029.4 ± 0.4 | 1022 ± 0.3
